Experimental data: patent US6630499B1, “Control of arthropods in animals” (Aventis CropScience, S.A., priority 1998, dated 2003)

Legend:
Format in all cases: in vivo
Emesis in treated cats = settings: cats, 20 mg/kg
Description: (§1) By the term “emesis” is meant vomiting. Generally an emetic substance elicits emesis in less than 24 hours after administration, usually less than 8 hours, more usually less than 2 hours. By the term “substantially non-emetic” is meant that, generally, when a compound or composition of the invention is administered to a population of animals, more than 70% (or at least ⅔) of the animals are free of emesis. Preferably, more than 80%, most preferably more than 90%, of said population is free of emesis.
(§2) In the animals treated with the compounds above, there was substantially no emesis after 2, 8 and 24 hours. Generally long-term control of fleas and ticks was provided in dogs. In the cats treated, there was commercially acceptable control of fleas for at least one day post treatment.
(§3) The compounds listed below were formulated and tested as described in Biological Example 1, again at the dosage level of active ingredient of 10 mg/kg in dogs and 20 mg/kg in cats. Results at 1 DPT (day post-treatment) are tabulated below, where the compound numbers are the same as those listed in Tables 1, 2, 4, 5, 6, 7, 8, 9, 10, 11, 12 and 13 hereinabove.

[1] = tested on: ticks (Rhipicephalus sanguineus); assay: Control of ticks on treated dogs (Biological Examples 1-3); settings: 10 mg/kg; for % Control 1 DPT (Fleas/Ticks): Ticks: dogs, 30 mg/mL in 1:1 dimethyl sulfoxide/corn oil, 1 day post-treatment, versus placebo group
Description: (§4) All dogs were infested with cat fleas (Ctenocephalides felis) and with ticks (Rhipicephalus sanguineus) 1 day prior to administration of the compound. Cats were only infested with fleas. The initial flea and tick counts were performed 1 day after the administration of the compounds. At 7, 14, 21 and 28 days after treatment the dogs were re-infested with ticks and 8, 15, 22 and 29 days after treatment the dogs and cats were re-infested with fleas. At 1, 9, 16, 23 and 30 days after treatment the control of fleas and ticks in treated dogs and cats was determined versus a group of infested dogs and cats which received a placebo consisting of a 1:1 volume/volume solution of dimethyl sulfoxide and corn oil. To determine the efficacies of the compounds, the arthropods were combed from the animals and counted.
as §3
(§5) Testing was carried out as described in Biological Example 1. […] The Huang et al compound was deemed to have insufficient activity to be tested in cats.

[2] = tested on: cat fleas (Ctenocephalides felis); assay: Control of cat fleas on treated cats (Biological Examples 1-3); settings: cats, 20 mg/kg, 30 mg/mL in 1:1 dimethyl sulfoxide/corn oil, 1 day post-treatment, versus placebo group
Description: as §4, §3, §5

Emesis in treated dogs = settings: 10 mg/kg; for % Emesis: dogs
Description: as §1, §2, §3

[3] = tested on: cat fleas (Ctenocephalides felis); assay: Control of cat fleas on treated dogs (Biological Examples 1-3); settings: 10 mg/kg; for % Control 1 DPT (Fleas/Ticks): Fleas: dogs, 30 mg/mL in 1:1 dimethyl sulfoxide/corn oil, 1 day post-treatment, versus placebo group
Description: as §4, §3, §5

| Structure (SMILES) | % Emesis (Emesis in treated cats) | % Control 1 DPT (Fleas/Ticks): Ticks [1] | % Control 1 DPT (Fleas) [2] | % Emesis (Emesis in treated dogs) | % Control 1 DPT (Fleas/Ticks): Fleas [3] | control of ticks after 9 DPT ([1]; group of 3 dogs, 9 DPT) | emesis (Emesis in treated dogs; group of 3 dogs) | control of fleas after 9 DPT ([3]; group of 3 dogs, 9 DPT) |
| --- | --- | --- | --- | --- | --- | --- | --- | --- |
| N#Cc1nn(-c2c(Cl)cc(C(F)(F)F)cc2Cl)c(N=CNCC(F)(F)F)c1SC(F)(F)F.O=C(O)CC(O)(CC(=O)O)C(=O)O [Compound 233] | 0% | 77% | 95% | 0% | 100% |  |  |  |
| CC(=O)N(C)c1c(SC(F)(F)F)c(C#N)nn1-c1c(Cl)cc(C(F)(F)F)cc1Cl [Compound 1-1] | 0% | 82% | 99% | 0% | 91% |  |  |  |
| CC(C)N(C(=O)C1CCCO1)c1c(SC(F)(F)F)c(C#N)nn1-c1c(Cl)cc(C(F)(F)F)cc1Cl (stereo not drawn) [Compound 3-7] | 0% | 100/100% | 100% | 0% | 100/100% |  |  |  |
| CN(C(=O)C1CCCO1)c1c(SC(F)(F)F)c(C#N)nn1-c1c(Cl)cc(C(F)(F)F)cc1Cl (racemic) [Compound 1-7] | 25% | 97% | 100% | 0% | 100% |  |  |  |
| CCCN(C(=O)OC)c1c(SC(F)(F)F)c(C#N)nn1-c1c(Cl)cc(C(F)(F)F)cc1Cl [Compound 75-1] | 25% | 57% | 71% | 0% | 89% |  |  |  |
| CCOC(=O)N(c1c(SC(F)(F)F)c(C#N)nn1-c1c(Cl)cc(C(F)(F)F)cc1Cl)C(C)C [Compound 80-1] | 0% | 94% | 99% | 0% | 100% |  |  |  |
| CN(C(=O)c1ccc(C(F)(F)F)cc1)c1c(SC(F)(F)F)c(C#N)nn1-c1c(Cl)cc(C(F)(F)F)cc1Cl [Compound 127-1] | 0% | 97% | 84% | 0% | 100% |  |  |  |
| CN(C(=O)C1CCCCO1)c1c(SC(F)(F)F)c(C#N)nn1-c1c(Cl)cc(C(F)(F)F)cc1Cl (racemic) [Compound 121-1] | 0% |  | 100% |  |  |  |  |  |
| N#Cc1nn(-c2c(Cl)cc(C(F)(F)F)cc2Cl)c(N(C(=O)C2CCCO2)C2CC2)c1S(=O)(=O)C(F)(F)F (racemic) [Compound 6-11] | 0% | 98% | 98% | 0% | 100% |  |  |  |
| CN(C(=O)C1CCCO1)c1c([S+]([O-])C(F)(F)F)c(C#N)nn1-c1c(Cl)cc(C(F)(F)F)cc1Cl (mixture of isomers) [Compound 1-9] | 0% | 100/100% | 100% | 0% | 100/100% |  |  |  |
| COCC(=O)N(C)c1c([S+]([O-])C(F)(F)F)c(C#N)nn1-c1c(Cl)cc(C(F)(F)F)cc1Cl (stereo not drawn) [Compound 2-3] | 0% | 99% | 100% | 33% | 100% |  |  |  |
| COCCC(=O)N(C)c1c(SC(F)(F)F)c(C#N)nn1-c1c(Cl)cc(C(F)(F)F)cc1Cl [Compound 37-1] | 0% |  | 76% |  |  |  |  |  |
| CN(C(=O)C1CCCO1)c1c(S(=O)(=O)C(F)(F)F)c(C#N)nn1-c1c(Cl)cc(C(F)(F)F)cc1Cl (racemic) [Compound 1-11] | 0% | 100/100% | 98% | 0% | 100/100% |  |  |  |
| CCOCC(=O)N(c1c(SC(F)(F)F)c(C#N)nn1-c1c(Cl)cc(C(F)(F)F)cc1Cl)C1CC1 [Compound 3-12] | 25% | 97% | 97% | 0% | 99% |  |  |  |
| CC(C)OC(=O)N(c1c(SC(F)(F)F)c(C#N)nn1-c1c(Cl)cc(C(F)(F)F)cc1Cl)C(C)C [Compound 81-1] | 0% | 66% | 100% | 0% | 76% |  |  |  |
| CCN(C(=O)OC)c1c(SC(F)(F)F)c(C#N)nn1-c1c(Cl)cc(C(F)(F)F)cc1Cl [Compound 71-1] | 50% | 100/100% | 100% | 0% | 100/100% |  |  |  |

| Structure (SMILES) | % Emesis (Emesis in treated cats) | % Control 1 DPT (Fleas/Ticks): Ticks [1] | % Control 1 DPT (Fleas) [2] | % Emesis (Emesis in treated dogs) | % Control 1 DPT (Fleas/Ticks): Fleas [3] | control of ticks after 9 DPT ([1]; group of 3 dogs, 9 DPT) | emesis (Emesis in treated dogs; group of 3 dogs) | control of fleas after 9 DPT ([3]; group of 3 dogs, 9 DPT) |
| --- | --- | --- | --- | --- | --- | --- | --- | --- |
| CC(C)OC(=O)N(C)c1c(SC(F)(F)F)c(C#N)nn1-c1c(Cl)cc(C(F)(F)F)cc1Cl [Compound 69-1] | 0% | 94% | 100% | 0% | 98% |  |  |  |
| CCOC(=O)N(CC)c1c(SC(F)(F)F)c(C#N)nn1-c1c(Cl)cc(C(F)(F)F)cc1Cl [Compound 72-1] | 0% | 97% | 99% | 0% | 100% |  |  |  |
| CCOCC(=O)N(CC1CC1)c1c(S(=O)(=O)C(F)(F)F)c(C#N)nn1-c1c(Cl)cc(C(F)(F)F)cc1Cl [Compound 28-5] |  | 74% |  | 0% | 100% |  |  |  |
| COCC(=O)Nc1c(SC(F)(F)F)c(C#N)nn1-c1c(Cl)cc(C(F)(F)F)cc1Cl [Huang et al compound, 1-(2,6-dichloro-4-trifluoromethylphenyl)-3-cyano-4-trifluoromethylthio-5-(methoxyacetamido)pyrazole, reference compound] |  |  |  |  |  | < 50% | no emesis (0/3) | < 50% |
| N#Cc1nn(-c2c(Cl)cc(C(F)(F)F)cc2Cl)c(N=CNCC(F)(F)F)c1SC(F)(F)F [Compound 211-1] |  | 51% |  | 0% | 99% |  |  |  |
| CCOC(C)C(=O)N(C)c1c([S+]([O-])C(F)(F)F)c(C#N)nn1-c1c(Cl)cc(C(F)(F)F)cc1Cl (mixture of isomers) [Compound 122-1] |  | 95% |  | 0% | 100% |  |  |  |
| CCCC(=O)N(C)c1c(SC(F)(F)F)c(C#N)nn1-c1c(Cl)cc(C(F)(F)F)cc1Cl [Compound 124-1] | 0% |  | 92% |  |  |  |  |  |
| CN(C(=O)C1CC1)c1c(SC(F)(F)F)c(C#N)nn1-c1c(Cl)cc(C(F)(F)F)cc1Cl [Compound 117-1] | 0% |  | 45% |  |  |  |  |  |
| CCCOC(=O)N(CCC)c1c(SC(F)(F)F)c(C#N)nn1-c1c(Cl)cc(C(F)(F)F)cc1Cl [Compound 78-1] |  | 94% |  | 0% | 96% |  |  |  |
| CCOC(C)(C)C(=O)N(C)c1c(SC(F)(F)F)c(C#N)nn1-c1c(Cl)cc(C(F)(F)F)cc1Cl [Compound 119-1] | 0% |  | 99% |  |  |  |  |  |
| CCOCCC(=O)N(C)c1c(SC(F)(F)F)c(C#N)nn1-c1c(Cl)cc(C(F)(F)F)cc1Cl [Compound 38-1] | 0% |  | 87% |  |  |  |  |  |
| N#Cc1nn(-c2c(Cl)cc(C(F)(F)F)cc2Cl)c(N(CC2CC2)C(=O)C2CCCO2)c1SC(F)(F)F (stereo not drawn) [Compound 7-7] |  | 66% |  | 0% | 29% |  |  |  |
| N#Cc1nn(-c2c(Cl)cc(C(F)(F)F)cc2Cl)c(N=CNCc2ccccc2)c1SC(F)(F)F [Compound 224] |  | 6% |  | 0% | 38% |  |  |  |
| CN(C(=O)C1CCCO1)c1c(SC(F)(F)F)c(C#N)nn1-c1c(Cl)cc(C(F)(F)F)cc1Cl [(S)1-7] | 0% |  | 99% |  |  |  |  |  |
| CN(C(=O)C1CCCO1)c1c(SC(F)(F)F)c(C#N)nn1-c1c(Cl)cc(C(F)(F)F)cc1Cl [(R)1-7] | 0% |  | 100% |  |  |  |  |  |
